Consider 3 molecules from ChEMBL document CHEMBL5715954, “Silencing c-Myc translation as a therapeutic strategy through targeting PI3Kδ and CK1ε in hematological malignancies” (Blood, 2017).

Set-up in all cases: scale not given: the % may be the effect or the level left
The target in test [1] is T1, Serine/threonine-protein kinase TBK1 (Homo sapiens) (UniProt Q9UHD2).
T1 sequence (whole entry): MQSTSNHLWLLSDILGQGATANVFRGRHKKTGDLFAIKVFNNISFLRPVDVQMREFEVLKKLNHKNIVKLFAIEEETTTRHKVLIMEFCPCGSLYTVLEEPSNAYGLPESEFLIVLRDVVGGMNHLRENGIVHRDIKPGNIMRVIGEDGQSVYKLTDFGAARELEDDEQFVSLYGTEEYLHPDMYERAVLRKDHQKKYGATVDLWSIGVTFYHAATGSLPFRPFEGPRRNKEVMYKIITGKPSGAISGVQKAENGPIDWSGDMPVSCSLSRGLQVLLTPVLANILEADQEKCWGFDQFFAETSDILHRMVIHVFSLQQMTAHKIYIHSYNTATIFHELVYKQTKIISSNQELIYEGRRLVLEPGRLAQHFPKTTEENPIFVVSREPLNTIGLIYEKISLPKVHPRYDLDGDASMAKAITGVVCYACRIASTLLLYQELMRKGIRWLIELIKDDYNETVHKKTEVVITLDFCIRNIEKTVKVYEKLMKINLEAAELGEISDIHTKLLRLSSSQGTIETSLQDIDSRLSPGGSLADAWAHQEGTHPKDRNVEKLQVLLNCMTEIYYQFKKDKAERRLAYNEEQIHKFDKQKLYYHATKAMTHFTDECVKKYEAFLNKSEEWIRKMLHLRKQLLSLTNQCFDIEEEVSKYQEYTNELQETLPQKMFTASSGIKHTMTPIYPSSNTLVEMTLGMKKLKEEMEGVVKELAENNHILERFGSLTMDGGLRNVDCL
Nature of the test: Inhibition of human TBK1 assessed as enzyme activity at 1 uM using myelin basic protein as substrate preincubated for 20 mins followed by [gamma-33P]-ATP addition and measured after 120 mins by radiometric Hot-SpotSM Kinase assay relative to control.

Test [2] concerns the target SRSF protein kinase 3 (Homo sapiens) (UniProt Q9UPE1). Nature of the test: Inhibition of human MSSK1 assessed as enzyme activity at 1 uM using GRSRSRSRSR as substrate preincubated for 20 mins followed by [gamma-33P]-ATP addition and measured after 120 mins by radiometric Hot-SpotSM Kinase assay relative to control.
Test [3] has as its target T2, Ephrin type-B receptor 3 (Homo sapiens) (UniProt P54753).
T2 sequence (whole entry): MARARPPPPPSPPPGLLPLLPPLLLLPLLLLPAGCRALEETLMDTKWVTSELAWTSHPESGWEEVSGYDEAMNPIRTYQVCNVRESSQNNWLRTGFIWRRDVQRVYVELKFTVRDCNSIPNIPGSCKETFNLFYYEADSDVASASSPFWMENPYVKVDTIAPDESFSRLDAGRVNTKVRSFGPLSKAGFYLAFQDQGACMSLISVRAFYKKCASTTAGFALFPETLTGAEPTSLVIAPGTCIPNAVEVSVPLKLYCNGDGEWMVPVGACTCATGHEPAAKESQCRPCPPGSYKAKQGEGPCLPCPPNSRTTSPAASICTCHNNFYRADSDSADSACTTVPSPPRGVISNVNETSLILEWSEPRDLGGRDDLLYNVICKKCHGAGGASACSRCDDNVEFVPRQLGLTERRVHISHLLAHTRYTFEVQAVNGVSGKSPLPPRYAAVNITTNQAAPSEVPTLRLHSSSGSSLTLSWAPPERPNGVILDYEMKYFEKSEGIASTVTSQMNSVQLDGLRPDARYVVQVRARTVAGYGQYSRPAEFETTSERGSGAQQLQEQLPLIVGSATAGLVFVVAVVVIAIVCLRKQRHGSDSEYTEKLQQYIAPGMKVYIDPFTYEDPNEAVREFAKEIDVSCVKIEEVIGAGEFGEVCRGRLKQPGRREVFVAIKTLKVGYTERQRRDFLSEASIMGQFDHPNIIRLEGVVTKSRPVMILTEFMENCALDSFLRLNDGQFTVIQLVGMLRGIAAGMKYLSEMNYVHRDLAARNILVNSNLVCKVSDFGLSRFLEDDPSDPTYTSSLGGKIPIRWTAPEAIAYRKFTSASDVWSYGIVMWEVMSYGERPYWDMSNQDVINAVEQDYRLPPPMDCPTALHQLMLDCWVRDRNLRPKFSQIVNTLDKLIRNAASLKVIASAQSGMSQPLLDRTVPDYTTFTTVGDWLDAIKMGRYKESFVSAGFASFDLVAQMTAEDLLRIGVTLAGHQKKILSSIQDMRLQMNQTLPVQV
The experiment in a line: Inhibition of human EPHB3 assessed as enzyme activity at 1 uM using poly[Glu:Tyr] (4:1) as substrate preincubated for 20 mins followed by [gamma-33P]-ATP addition and measured after 120 mins by radiometric Hot-SpotSM Kinase assay relative to control.

Test [4] addresses Calcium/calmodulin-dependent protein kinase type 1D (Homo sapiens) (UniProt Q8IU85). The experiment in a line: Inhibition of human CAMK1d assessed as enzyme activity at 1 uM using KKALRRQETVDAL as substrate preincubated for 20 mins followed by [gamma-33P]-ATP addition and measured after 120 mins by radiometric Hot-SpotSM Kinase assay relative to control.
Test [5] concerns the target CDK2/Cyclin A1 (Homo sapiens) (UniProt P24941+P78396). Nature of the test: Inhibition of human CDK2/Cyclin A1 assessed as enzyme activity at 1 uM using RB Protein as substrate preincubated for 20 mins followed by [gamma-33P]-ATP addition and measured after 120 mins by radiometric Hot-SpotSM Kinase assay relative to control. Format: protein-complex assay.
The target of test [6] is Tau-tubulin kinase 2 (Homo sapiens) (UniProt Q6IQ55). The experiment in a line: Inhibition of human TTBK2 assessed as enzyme activity at 1 uM using myelin basic protein as substrate preincubated for 20 mins followed by [gamma-33P]-ATP addition and measured after 120 mins by radiometric Hot-SpotSM Kinase assay relative to control.
Tau-tubulin kinase 2 (Homo sapiens), sequence (Q6IQ55 whole entry): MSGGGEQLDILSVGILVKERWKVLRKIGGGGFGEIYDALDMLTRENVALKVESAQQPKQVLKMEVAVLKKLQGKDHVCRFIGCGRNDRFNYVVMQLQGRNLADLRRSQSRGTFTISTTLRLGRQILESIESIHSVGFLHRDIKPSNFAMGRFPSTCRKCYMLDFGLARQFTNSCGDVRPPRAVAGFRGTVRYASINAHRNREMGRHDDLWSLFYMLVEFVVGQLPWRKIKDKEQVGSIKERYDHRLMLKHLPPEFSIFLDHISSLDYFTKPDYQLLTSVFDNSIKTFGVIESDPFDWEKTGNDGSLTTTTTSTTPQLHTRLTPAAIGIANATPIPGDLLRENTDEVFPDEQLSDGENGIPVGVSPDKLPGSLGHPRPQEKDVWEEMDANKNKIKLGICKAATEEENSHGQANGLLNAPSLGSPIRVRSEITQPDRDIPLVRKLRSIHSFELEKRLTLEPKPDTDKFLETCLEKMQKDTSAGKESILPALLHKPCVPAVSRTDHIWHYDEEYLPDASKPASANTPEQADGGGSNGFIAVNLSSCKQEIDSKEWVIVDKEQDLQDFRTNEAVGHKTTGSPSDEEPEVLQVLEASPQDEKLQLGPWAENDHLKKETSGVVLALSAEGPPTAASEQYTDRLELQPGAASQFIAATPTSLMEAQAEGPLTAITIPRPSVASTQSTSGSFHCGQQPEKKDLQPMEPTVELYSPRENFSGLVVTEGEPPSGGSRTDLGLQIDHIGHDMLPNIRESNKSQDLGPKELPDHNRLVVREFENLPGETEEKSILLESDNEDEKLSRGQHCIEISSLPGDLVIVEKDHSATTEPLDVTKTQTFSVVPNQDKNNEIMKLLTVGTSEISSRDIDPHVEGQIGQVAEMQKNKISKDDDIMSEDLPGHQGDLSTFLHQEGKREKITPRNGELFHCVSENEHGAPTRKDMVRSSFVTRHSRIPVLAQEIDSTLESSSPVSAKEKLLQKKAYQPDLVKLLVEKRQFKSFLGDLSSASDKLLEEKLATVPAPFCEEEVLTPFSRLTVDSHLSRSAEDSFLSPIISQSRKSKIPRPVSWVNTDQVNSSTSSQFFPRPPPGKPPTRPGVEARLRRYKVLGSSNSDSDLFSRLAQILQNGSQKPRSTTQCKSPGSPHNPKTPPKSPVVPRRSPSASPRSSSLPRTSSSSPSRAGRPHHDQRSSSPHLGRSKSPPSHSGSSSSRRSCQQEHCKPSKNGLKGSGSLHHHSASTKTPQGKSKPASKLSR

Calcium/calmodulin-dependent protein kinase type 1D (Homo sapiens), sequence (Q8IU85 whole entry, looked up): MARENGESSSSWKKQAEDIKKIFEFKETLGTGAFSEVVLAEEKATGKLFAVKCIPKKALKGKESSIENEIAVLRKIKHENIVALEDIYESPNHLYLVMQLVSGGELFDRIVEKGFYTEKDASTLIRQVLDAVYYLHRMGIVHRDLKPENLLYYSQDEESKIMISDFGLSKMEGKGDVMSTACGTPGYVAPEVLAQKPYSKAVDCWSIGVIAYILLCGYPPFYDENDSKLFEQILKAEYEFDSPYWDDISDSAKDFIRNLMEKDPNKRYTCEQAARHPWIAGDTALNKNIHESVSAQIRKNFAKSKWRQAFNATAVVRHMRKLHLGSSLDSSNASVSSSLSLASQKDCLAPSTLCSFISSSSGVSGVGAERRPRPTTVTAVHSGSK
SRSF protein kinase 3 (Homo sapiens), sequence (Q9UPE1 whole entry): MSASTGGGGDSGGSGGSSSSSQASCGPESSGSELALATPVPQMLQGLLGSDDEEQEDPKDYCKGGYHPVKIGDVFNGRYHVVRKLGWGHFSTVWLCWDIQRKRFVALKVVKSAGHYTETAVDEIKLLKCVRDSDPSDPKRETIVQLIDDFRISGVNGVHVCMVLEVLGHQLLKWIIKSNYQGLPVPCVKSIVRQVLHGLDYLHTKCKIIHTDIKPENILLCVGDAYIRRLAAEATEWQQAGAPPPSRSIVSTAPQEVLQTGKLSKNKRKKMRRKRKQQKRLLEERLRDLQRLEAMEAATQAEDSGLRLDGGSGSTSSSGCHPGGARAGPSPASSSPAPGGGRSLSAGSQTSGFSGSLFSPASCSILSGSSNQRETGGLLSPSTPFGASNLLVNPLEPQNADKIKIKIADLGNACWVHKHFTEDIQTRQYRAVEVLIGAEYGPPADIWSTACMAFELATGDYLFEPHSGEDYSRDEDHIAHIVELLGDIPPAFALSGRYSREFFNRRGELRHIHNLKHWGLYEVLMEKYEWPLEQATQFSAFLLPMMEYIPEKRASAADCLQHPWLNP

Take `C[C@H](Nc1ncnc2nc[nH]c12)c1cc2cccc(Cl)c2c(=O)n1-c1ccccc1`: the Activity turned out to be 94.4% in test [1]; 102% in test [2]; 89.7% in test [3]; 96% in test [4]; 79.7% in test [5]; 95.8% in test [6].

Consider `CC[C@H](Nc1ncnc2[nH]cnc12)c1nc2cccc(F)c2c(=O)n1-c1ccccc1`, for which the Activity in test [1] was 89.6%; in test [2], 101%; in test [3], 98.3%; in test [4], 98.8%; in test [5], 86.7%; in test [6] it was 90.6%.

Take `CC(C)Oc1ccc(-c2nn([C@@H](C)c3oc4ccc(F)cc4c(=O)c3-c3cccc(F)c3)c3ncnc(N)c23)cc1F` [UMBRALISIB]: the Activity in test [1] came to 93.9%; in test [2], 107%; in test [3] it was 97.4%; in test [4], 99.1%; in test [5] it was 78%; in test [6], 96.7%.
